Laboratory results from patent US20260325645A1, “IMPROVEMENTS IN OR RELATING TO COMPOSITIONS FOR IMPROVEMENT OF PHOTODYNAMIC THERAPY” (SYDERMA LTD, priority 2023, published 2026).
Entries after “also recorded” stand apart in the source; their conditions may differ.

Legend:
[1] = clinical trials; reference 17; cited from earlier work
[2] = references 11, 12, 13; cited from earlier work
[3] = tested on: ATR; settings: reference 10; cited from earlier work
[4] = tested on: ATM; settings: reference 10; cited from earlier work
[5] = tested on: PARP; settings: only compound with activity on PARP in addition to ATM and ATR; cited from earlier work
[6] = tested on: actinic keratoses; experiment: Theobromine alone on actinic keratoses (comparative Examples 4 and 5); format: in vivo, human; settings: 0.5% theobromine solution applied once, 1 month later
Description: A person presented with actinic keratoses on their scalp. Three actinic keratoses were selected by a qualified dermatologist and treated once with 0.5% theobromine topical preparation solution. The theobromine solution was prepared in 25% ethanol and 50% glycerol, adjusted to pH 8 via 100 mM sodium hydrogen carbonate solution. For treatment, theobromine solution was applied to the selected lesions of the scalp in a thin aqueous film using 50 μL of the solution per lesion (1 drop). The solution was left to dry and permeate the skin for 20 minutes. The position of the lesions was marked with a water-soluble marker and the lesions were photographed. The patient was reviewed 1 month later by a qualified dermatologist and the lesions were compared with the baseline photographs.
A person presented with actinic keratoses on their face and scalp. An actinic keratosis was selected by a qualified dermatologist on their right cheek and treated once with 0.5% theobromine topical preparation solution. The theobromine solution was prepared in 25% ethanol and 50% glycerol, adjusted to pH 8 via 100 mM sodium hydrogen carbonate solution. For treatment, theobromine solution was applied to the selected lesions of the […] in a thin aqueous film using 50 μL of the solution per lesion (1 drop). The solution was left to dry and permeate the skin for 20 minutes. […]

[7] = tested on: acne; experiment: Theobromine treatment of acne (comparative Examples 8-11); format: in vivo, human; settings: 0.5% theobromine topical; for improvement of acne: data not shown
Description: (§1) A patient presented with acne bilaterally on their face. The acne presented as active inflammatory reaction or as visible white liquid-filled extrusions. For the purposes of the test, the affected area was split into two sections, left cheek and right cheek. The right face was treated with 0.5% theobromine topical preparation solution. The theobromine solution was prepared in 25% ethanol and 50% glycerol, adjusted to pH 8 via 100 mM sodium hydrogen carbonate solution.
For the purposes of the treatment, theobromine solution was applied to the right side of the face in a thin film using 100-200 μL of the solution (2-4 drops). The solution was left to dry and penetrate the skin for 20 minutes, after which both sides of the face were covered in the photosensitizer cream as per manufacturer's instructions, using 1-1.5 g of cream. The cream was left to penetrate the skin for 5-10 minutes and the patient was asked not to wash their face for 2 hours.
The patient was assessed first prior to treatment and subsequently 1 month after for the success and quantification of active acne on each side of the face by a qualified dermatologist.
as §1, with “The left” for “The right”
For the purposes of the treatment, theobromine solution was applied to the left side of the face in a thin film using 100-200 μL of the solution (2-4 drops). […]
The patient was assessed first prior to treatment and subsequently 6 weeks after for the success and quantification of active acne on each side of the face by a qualified dermatologist.

[8] = tested on: DNA repair; settings: in vitro, through modulating the activity of ATM/ATR kinases, as well as PARP; references 10,11,12,14; cited from earlier work
[9] = tested on: active lesions (acne); experiment: Combined analysis of acne lesion clearance, Examples 3, 6 and 7 (FIG. 6); format: in vivo, human; settings: pre- and final post-treatment data of Examples 3, 6 and 7; P 0.005 paired, two-tailed T-test

In the case of `CC(=O)CCCCn1c(=O)c2c(ncn2C)n(C)c1=O` [pentoxyphilline], the “clinical benefit as radiosensitiser” value [1] is listed as “failed to provide consistent benefits” and the radiosensitising activity [2] is listed as “radiosensitisers”.

In the case of `Cn1c(=O)c2[nH]cnc2n(C)c1=O` [theophylline], the radiosensitising activity [2] is listed as “radiosensitisers”.

In the case of `Cn1c(=O)c2c(ncn2C)n(C)c1=O` [caffeine], the ATR inhibition [3] is listed as “inhibitors of both ATM and ATR”, the ATM inhibition [4] is listed as “inhibitors of both ATM and ATR” and the radiosensitising activity [2] is listed as “radiosensitisers”.

For `Cn1cnc2c1c(=O)[nH]c(=O)n2C` [theobromine], the ATR inhibition [3] is given as “inhibitors of both ATM and ATR”, the PARP inhibitory activity [5] is given as “measurable PARP inhibitory activity” and the ATM inhibition [4] is given as “inhibitors of both ATM and ATR”. The “improvement of actinic keratosis” value ([6]; no photosensitizer) was “No improvement of actinic keratoses was observed; also recorded: No improvement of actinic keratosis was observed”, the redness or soreness [6] was “No redness or soreness were observed” and the patient-reported adverse effects ([7]; 1 month (Examples 8, 9, 10) or 6 weeks (Example 11)) was “No patient-reported adverse effects”. For the same compound, the improvement of acne ([7]; 1 month after (Examples 8, 9, 10)) was “did not improve acne”, the improvement of acne ([7]; 6 weeks after (Example 11)) was “did not improve acne” and the radiosensitising activity [2] was “radiosensitisers”. The “inhibition of DNA repair” value [8] was “inhibit DNA repair in vitro”.

In the case of `COC(=O)CCC(=O)CN` [methyl aminolevulinate], the “average clearance of active lesions” value [9] is reported as 32%.
